From patent US9687572B2, “PSMA-targeted dendrimers” (MOLECULAR INSIGHT PHARMACEUTICALS, INC., priority 2010, dated 2017)

Biological target: T1, PSMA (Homo sapiens, UniProt Q04609)
T1 construct: host or cells: LNCaP human prostate cancer cells
Assay: Competitive binding assay against [123I]-MIP-1072 on LNCaP cells
Conditions: FIG. 1
Experimental: The newly prepared analogs of the general structure 5 were screened in a human prostate cancer cell binding assay at a concentration of 3 nM using PSMA positive (+), LnCap cells.
Human prostate cancer cell line, LNCaP (PSMA positive) were obtained from the American Type Culture Collection (Rockville, Md.). LNCaP cells were maintained in RPMI-1640 medium (Invitrogen, Carlsbad, Calif.) supplemented with 10% fetal bovine serum (Hyclone, Logan, Utah) in a humidified incubator at 37° C./5% CO2. Cells were removed from flasks for passage or for transfer to 12-well assay plates by incubating them with 0.25% trypsin/EDTA (Invitrogen, Carlsbad, Calif.).
In a typical competitive binding assay, LNCaP cells were plated in 12-well plates at approximately 4×10^5 cells/well and incubated for 48 hours in a humidified incubator at 37° C./5% carbon dioxide prior to addition of PSMA inhibitors. The exemplary EDTA-PSMA tetramer MIP-1444 was diluted in serum-free cell culture medium containing 0.5% bovine serum albumin (BSA). Diluted MIP-1444 was added to the cells in the presence of 3 nM [^123I]-MIP-1072 for 1 hour at room temperature. Cells were removed from the plates by gently pipetting and transferred to 1.5 mL Eppendorff tubes. Samples were microcentrifuged for 30 seconds at 15K×g. […] Cell binding of [^123I]-MIP-1072 was determined by counting the cell pellet in a Wallac 1282 automated gamma counter. […]

T1 sequence (Q04609 whole entry): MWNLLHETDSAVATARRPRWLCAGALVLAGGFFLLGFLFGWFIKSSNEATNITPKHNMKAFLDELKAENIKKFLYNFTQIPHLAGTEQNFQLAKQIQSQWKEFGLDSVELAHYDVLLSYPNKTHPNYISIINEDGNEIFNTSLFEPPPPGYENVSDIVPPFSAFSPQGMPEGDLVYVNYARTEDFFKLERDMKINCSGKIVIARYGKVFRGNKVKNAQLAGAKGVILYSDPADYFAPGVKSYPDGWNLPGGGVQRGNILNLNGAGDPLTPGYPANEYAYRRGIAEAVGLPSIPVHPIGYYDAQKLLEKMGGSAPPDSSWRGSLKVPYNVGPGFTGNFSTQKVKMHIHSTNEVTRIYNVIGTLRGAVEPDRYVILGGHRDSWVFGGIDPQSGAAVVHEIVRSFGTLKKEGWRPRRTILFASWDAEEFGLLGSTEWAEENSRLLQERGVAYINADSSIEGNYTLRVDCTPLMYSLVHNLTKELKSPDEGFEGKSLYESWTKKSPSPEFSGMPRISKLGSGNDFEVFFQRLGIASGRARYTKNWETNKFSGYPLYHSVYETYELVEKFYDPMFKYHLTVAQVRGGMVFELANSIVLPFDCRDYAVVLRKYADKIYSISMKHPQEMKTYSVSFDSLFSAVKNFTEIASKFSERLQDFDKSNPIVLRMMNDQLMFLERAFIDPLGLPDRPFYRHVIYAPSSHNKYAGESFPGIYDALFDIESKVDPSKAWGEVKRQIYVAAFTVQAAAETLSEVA

NCCCC[C@H](NC(=O)N[C@@H](CCC(=O)O)C(=O)O)C(=O)O [MIP-1033]
IC50 value fold greater than the IC50 for the tetramer MIP-1444 (3 nM [123I]-MIP-1072, 1 hour at room temperature): 36 fold | affinity for PSMA (in words) (competitive binding curves): low affinity
